# Key:
# Type in all cases: biochemical
# JNK1 = JNK1 (Homo sapiens, UniProt P45983); assay: 33PanQinase enzyme assay, JNK1; parameters: purchased ProQinase GmbH, Freiburg, Germany (33PanQinase Assay Service); settings: ratio IC50(JNK1)/IC50(MKK4)
# Method in brief: (§1)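 Radiometric 33PanQinase format: kinase with substrate, ATP and compound (added in 10% DMSO stock) incubated 60 min at 30° C, stopped with 2% H3PO4, ^33Pi incorporation counted by scintillation. Single-concentration data given as % residual activity; IC50 by least-squares fit, with selectivity as IC50(off-target)/IC50(MKK4).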
# MKK7 = molecular target: T1, MKK7 (Homo sapiens, UniProt O14733); assay: 33PanQinase enzyme assay, MKK7; parameters: purchased ProQinase GmbH, Freiburg, Germany (33PanQinase Assay Service); settings: ratio IC50(MKK7)/IC50(MKK4)
# T1 sequence (O14733 1-419): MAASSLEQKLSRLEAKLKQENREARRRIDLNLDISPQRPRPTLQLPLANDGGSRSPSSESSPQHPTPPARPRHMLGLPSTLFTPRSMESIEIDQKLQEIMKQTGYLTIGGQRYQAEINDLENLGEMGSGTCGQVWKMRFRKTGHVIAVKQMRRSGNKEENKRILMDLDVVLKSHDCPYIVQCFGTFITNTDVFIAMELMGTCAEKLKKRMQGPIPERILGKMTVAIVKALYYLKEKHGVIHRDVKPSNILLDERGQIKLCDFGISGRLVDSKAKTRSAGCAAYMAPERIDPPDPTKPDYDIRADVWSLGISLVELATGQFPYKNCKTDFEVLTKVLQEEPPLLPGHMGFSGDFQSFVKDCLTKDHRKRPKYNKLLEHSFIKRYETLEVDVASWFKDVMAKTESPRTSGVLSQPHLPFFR
# Method in brief: as §1
# MKK4 = molecular target: T2, MKK4 (Homo sapiens, UniProt P45985); assay: 33PanQinase enzyme assay, MKK4; settings: assay 'IC50'; read-out: Potency MKK4 (IC50)
# T2 construct: purchased ProQinase GmbH, Freiburg, Germany (33PanQinase Assay Service)
# T2 sequence (P45985 1-399): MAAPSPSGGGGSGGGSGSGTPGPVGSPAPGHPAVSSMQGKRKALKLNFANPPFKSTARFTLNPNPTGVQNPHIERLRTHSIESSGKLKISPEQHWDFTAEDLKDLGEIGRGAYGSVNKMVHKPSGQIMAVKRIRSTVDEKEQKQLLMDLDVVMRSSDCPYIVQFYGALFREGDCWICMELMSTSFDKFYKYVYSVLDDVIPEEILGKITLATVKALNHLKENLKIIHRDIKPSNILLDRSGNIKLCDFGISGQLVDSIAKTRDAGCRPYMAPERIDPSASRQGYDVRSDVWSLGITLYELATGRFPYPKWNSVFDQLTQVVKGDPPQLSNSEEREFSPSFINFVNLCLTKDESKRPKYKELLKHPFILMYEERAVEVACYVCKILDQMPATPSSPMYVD
# Method in brief: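 Radiometric 33PanQinase assay: kinase, substrate, ATP and compound in standard buffer, 60 min at 30 °C; 33Pi incorporation read by scintillation counting.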
# BRaf = molecular target: T3, BRaf (Homo sapiens, UniProt P15056); assay: 33PanQinase enzyme assay, BRaf; settings: ratio IC50(BRaf)/IC50(MKK4)
# T3 construct: purchased ProQinase GmbH, Freiburg, Germany (33PanQinase Assay Service)
# T3 sequence (P15056 whole entry, species assumed): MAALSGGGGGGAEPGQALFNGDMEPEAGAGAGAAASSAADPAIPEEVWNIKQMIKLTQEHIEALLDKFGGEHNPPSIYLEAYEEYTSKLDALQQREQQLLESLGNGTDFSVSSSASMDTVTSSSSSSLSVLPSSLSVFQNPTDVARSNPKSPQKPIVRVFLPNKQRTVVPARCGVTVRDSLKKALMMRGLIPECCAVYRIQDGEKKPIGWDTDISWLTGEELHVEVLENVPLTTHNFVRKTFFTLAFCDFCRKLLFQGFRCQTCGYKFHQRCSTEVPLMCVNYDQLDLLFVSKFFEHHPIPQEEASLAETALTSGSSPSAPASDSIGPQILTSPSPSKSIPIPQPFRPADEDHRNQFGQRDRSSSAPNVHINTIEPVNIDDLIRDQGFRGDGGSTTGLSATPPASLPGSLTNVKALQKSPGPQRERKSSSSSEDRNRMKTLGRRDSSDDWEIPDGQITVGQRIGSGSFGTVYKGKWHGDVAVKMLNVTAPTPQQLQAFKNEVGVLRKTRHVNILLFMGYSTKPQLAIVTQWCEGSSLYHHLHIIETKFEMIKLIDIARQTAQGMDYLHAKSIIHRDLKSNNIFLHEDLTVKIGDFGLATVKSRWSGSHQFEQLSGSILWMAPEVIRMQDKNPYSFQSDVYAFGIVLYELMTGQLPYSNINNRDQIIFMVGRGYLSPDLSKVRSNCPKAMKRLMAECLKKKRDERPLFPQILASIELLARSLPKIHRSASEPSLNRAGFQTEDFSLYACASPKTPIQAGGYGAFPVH
# Method in brief: as §1
# Sequence of JNK1 (P45983 whole entry): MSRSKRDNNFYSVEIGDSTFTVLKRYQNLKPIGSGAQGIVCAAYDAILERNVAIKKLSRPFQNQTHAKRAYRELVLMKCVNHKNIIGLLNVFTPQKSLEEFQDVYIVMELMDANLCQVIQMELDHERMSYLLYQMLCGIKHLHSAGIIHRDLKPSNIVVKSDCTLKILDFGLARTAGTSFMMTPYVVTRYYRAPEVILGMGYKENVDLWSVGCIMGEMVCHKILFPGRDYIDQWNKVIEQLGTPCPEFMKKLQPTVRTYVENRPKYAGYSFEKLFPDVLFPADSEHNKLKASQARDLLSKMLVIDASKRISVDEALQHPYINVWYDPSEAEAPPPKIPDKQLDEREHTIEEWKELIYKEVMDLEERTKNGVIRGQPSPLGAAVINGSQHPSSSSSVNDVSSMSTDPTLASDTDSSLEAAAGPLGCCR
"Selectivity JNK1, IC50(off-target)/IC50(MKK4) (JNK1)","Selectivity IVIKK7, IC50(off-target)/IC50(MKK4) (MKK7)",IC50 (MKK4) [µM],"Selectivity Braf, IC50(off-target)/IC50(MKK4) (BRaf)",Structure (SMILES)
+++ (IC50(off-target)/IC50(MKK4) > 100),+++ (IC50(off-target)/IC50(MKK4) > 100),0.1 to 1,+++ (IC50(off-target)/IC50(MKK4) > 100),"CCCS(=O)(=O)Nc1c(F)ccc(C(=O)c2c[nH]c3ncc(-c4cnc(N5CCCC5)nc4)cc23)c1F [Example 191, N-(2,6-difluoro-3-(5-(2-(pyrrolidin-1-yl)pyrimidin-5-yl)-1H-pyrrolo[2,3-b]pyridine-3-carbonyl)phenyl)propane-1-sulfonamide]"
+++ (IC50(off-target)/IC50(MKK4) > 100),+++ (IC50(off-target)/IC50(MKK4) > 100),< 0.1,+++ (IC50(off-target)/IC50(MKK4) > 100),"CCCS(=O)(=O)Nc1c(F)ccc(C(=O)c2c[nH]c3ncc(-c4ccncc4C)cc23)c1F [Example 235, N-(2,6-difluoro-3-(5-(3-methylpyridin-4-yl)-1H-pyrrolo[2,3-b]pyridine-3-carbonyl)phenyl)propane-1-sulfonamide]"
+++ (IC50(off-target)/IC50(MKK4) > 100),+++ (IC50(off-target)/IC50(MKK4) > 100),< 0.1,+++ (IC50(off-target)/IC50(MKK4) > 100),"CCCS(=O)(=O)Nc1c(F)ccc(C(=O)c2c[nH]c3ncc(-c4ccc(F)cc4)cc23)c1F [Example 216, N-(2,6-difluoro-3-(5-(4-fluorophenyl)-1H-pyrrolo[2,3-b]pyridine-3-carbonyl)phenyl)propane-1-sulfonamide]"
◯ (3 ≥ IC50(off-target)/IC50(MKK4)),+++ (IC50(off-target)/IC50(MKK4) > 100),0.1 to 1,◯ (3 ≥ IC50(off-target)/IC50(MKK4)),CCCS(=O)(=O)Nc1ccc(F)c(C(=O)c2c[nH]c3ncc(-c4cscn4)cc23)c1F [Example 57]
+ (10 ≥ IC50(off-target)/IC50(MKK4) > 3),+++ (IC50(off-target)/IC50(MKK4) > 100),0.1 to 1,◯ (3 ≥ IC50(off-target)/IC50(MKK4)),"CCCS(=O)(=O)Nc1ccc(F)c(C(=O)c2c[nH]c3ncc(-c4ccc(C(C)(C)C)cc4)cc23)c1F [Example 113, N-(3-(5-(4-(tert-butyl)phenyl)-1H-pyrrolo[2,3-b]pyridine-3-carbonyl)-2,4-difluorophenyl)propane-1-sulfonamide]"
◯ (3 ≥ IC50(off-target)/IC50(MKK4)),+++ (IC50(off-target)/IC50(MKK4) > 100),0.1 to 1,◯ (3 ≥ IC50(off-target)/IC50(MKK4)),"CCCS(=O)(=O)Nc1ccc(F)c(C(=O)c2c[nH]c3ncc(-c4ccc(NC(C)=O)cc4)cc23)c1F [Example 116, N-(4-(3-(2,6-difluoro-3-(propylsulfonamido)benzoyl)-1H-pyrrolo[2,3-b]pyridin-5-yl)phenyl)acetamide]"
+++ (IC50(off-target)/IC50(MKK4) > 100),+++ (IC50(off-target)/IC50(MKK4) > 100),< 0.1,+++ (IC50(off-target)/IC50(MKK4) > 100),"CCCS(=O)(=O)Nc1c(F)ccc(C(=O)c2c[nH]c3ncc(-c4cnc(NCCO)nc4)cc23)c1F [Example 201, N-(2,6-difluoro-3-(5-(2-((2-hydroxyethyl)amino)pyrimidin-5-yl)-1H-pyrrolo[2,3-b]pyridine-3-carbonyl)phenyl)propane-1-sulfonamide]"
+++ (IC50(off-target)/IC50(MKK4) > 100),+++ (IC50(off-target)/IC50(MKK4) > 100),< 0.1,+++ (IC50(off-target)/IC50(MKK4) > 100),"CCCS(=O)(=O)Nc1c(F)ccc(C(=O)c2c[nH]c3ncc(-c4cnc(C5CC5)cc4C)cc23)c1F [Example 167, N-(3-(5-(6-cyclopropyl-4-methylpyridin-3-yl)-1H-pyrrolo[2,3-b]pyridine-3-carbonyl)-2,6-difluorophenyl)propane-1-sulfonamide]"

Structure (SMILES),"Selectivity JNK1, IC50(off-target)/IC50(MKK4) (JNK1)","Selectivity IVIKK7, IC50(off-target)/IC50(MKK4) (MKK7)",IC50 (MKK4) [µM],"Selectivity Braf, IC50(off-target)/IC50(MKK4) (BRaf)"
"CCCS(=O)(=O)Nc1ccc(F)c(C(=O)c2c[nH]c3ncc(-c4ccc(N(C)C)cc4)cc23)c1F [Example 98, N-(3-(5-(4-(dimethylamino)phenyl)-1H-pyrrolo[2,3-b]pyridine-3-carbonyl)-2,4-difluorophenyl)propane-1-sulfonamide]",+ (10 ≥ IC50(off-target)/IC50(MKK4) > 3),++ (100 ≥ IC50(off-target)/IC50(MKK4) > 10),1 to 10,◯ (3 ≥ IC50(off-target)/IC50(MKK4))
"CCCS(=O)(=O)Nc1c(F)ccc(C(=O)c2c[nH]c3ncc(-c4cnc(NCCCOC)nc4)cc23)c1F [Example 192, N-(2,6-difluoro-3-(5-(2-((3-methoxypropyl)amino)pyrimidin-5-yl)-1H-pyrrolo[2,3-b]pyridine-3-carbonyl)phenyl)propane-1-sulfonamide]",++ (100 ≥ IC50(off-target)/IC50(MKK4) > 10),+++ (IC50(off-target)/IC50(MKK4) > 100),0.1 to 1,+++ (IC50(off-target)/IC50(MKK4) > 100)
"CCCS(=O)(=O)Nc1c(F)ccc(C(=O)c2c[nH]c3ncc(-c4ccccc4Cl)cc23)c1F [Example 213, N-(3-(5-(2-chlorophenyl)-1H-pyrrolo[2,3-b]pyridine-3-carbonyl)-2,6-difluorophenyl)propane-1-sulfonamide]",++ (100 ≥ IC50(off-target)/IC50(MKK4) > 10),+++ (IC50(off-target)/IC50(MKK4) > 100),< 0.1,+++ (IC50(off-target)/IC50(MKK4) > 100)
"CCCS(=O)(=O)Nc1c(F)ccc(C(=O)c2c[nH]c3ncc(-c4cnc(N5CCN(C)CC5)nc4)cc23)c1F [Example 194, N-(2,6-difluoro-3-(5-(2-(4-methylpiperazin-1-yl)pyrimidin-5-yl)-1H-pyrrolo[2,3-b]pyridine-3-carbonyl)phenyl)propane-1-sulfonamide]",++ (100 ≥ IC50(off-target)/IC50(MKK4) > 10),+++ (IC50(off-target)/IC50(MKK4) > 100),0.1 to 1,++ (100 ≥ IC50(off-target)/IC50(MKK4) > 10)
"CCCS(=O)(=O)Nc1c(F)ccc(C(=O)c2c[nH]c3ncc(-c4cnc(-c5ccc6nc[nH]c6c5)nc4)cc23)c1F [Example 210, N-(3-(5-(2-(1H-benzo[d]imidazol-6-yl)pyrimidin-5-yl)-1H-pyrrolo[2,3-b]pyridine-3-carbonyl)-2,6-difluorophenyl)propane-1-sulfonamide]",+ (10 ≥ IC50(off-target)/IC50(MKK4) > 3),++ (100 ≥ IC50(off-target)/IC50(MKK4) > 10),1 to 10,++ (100 ≥ IC50(off-target)/IC50(MKK4) > 10)
"CCCS(=O)(=O)Nc1ccc(F)c(C(=O)c2c[nH]c3ncc(N4CCC(=O)CC4)cc23)c1F [Example 135, N-(2,4-difluoro-3-(5-(4-oxopiperidin-1-yl)-1H-pyrrolo[2,3-b]pyridine-3-carbonyl)phenyl)propane-1-sulfonamide]",◯ (3 ≥ IC50(off-target)/IC50(MKK4)),++ (100 ≥ IC50(off-target)/IC50(MKK4) > 10),1 to 10,◯ (3 ≥ IC50(off-target)/IC50(MKK4))

# Source: US11912701B2, “Protein kinase inhibitors for promoting liver regeneration or reducing or preventing hepatocyte death” (HEPAREGENIX GMBH, priority 2018, dated 2024)
